Source: ChEMBL document CHEMBL1201862, “PubChem BioAssay data set” (2004)
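Results reflect a 48-hour exposure of cells in 96-well plates to compound at five concentrations. GI50 marks 50% less growth.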 Activity calls are given as the source filed them. Cut-off read from the data, not from the text of the source: active = GI50 up to about 1.1 µM and inactive = higher.

Tests used:
Assay in all cases: inhibition of tumour cell growth, NCI panel, 48 h
[1] = tested on: SF-539
[2] = tested on: 786-0
[3] = tested on: SNB-75
[4] = tested on: SR
[5] = tested on: NCI/ADR-RES
[6] = tested on: MDA-MB-231
[7] = tested on: HCT-15
[8] = tested on: HT-29
[9] = tested on: MDA-MB-435
[10] = tested on: NCI-H226
[11] = tested on: DU-145
[12] = tested on: CAKI-1
[13] = tested on: HOP-62
[14] = tested on: CCRF-CEM
[15] = tested on: MOLT-4
[16] = tested on: SNB-19
[17] = tested on: OVCAR-4
[18] = tested on: RXF 393

Row | Structure (SMILES) | GI50 [1] | GI50 [2] | GI50 [3] | GI50 [4] | GI50 [5] | GI50 [6] | GI50 [7] [µM] | GI50 [8] | GI50 [9] | GI50 [10] | GI50 [11] | GI50 [12] | GI50 [13] | GI50 [14] | GI50 [15] | GI50 [16] | GI50 [17] | GI50 [18]
1 | O=C1c2ccccc2-c2c1c1ccccc1c(=O)n2Cc1ccco1 | 39.6 µM (inactive) | > 100 µM (inactive) | 48.6 µM (inactive) | > 100 µM (inactive) | > 100 µM (inactive) | > 100 µM (inactive) | > 100 | > 100 µM (inactive) | > 100 µM (inactive) | > 100 µM (inactive) | > 100 µM (inactive) | > 100 µM (inactive) | 47.1 µM (inactive) | > 100 µM (inactive) | > 100 µM (inactive) | – | – | –
2 | CCOC(=O)C(NC(=O)c1cccc(Cl)c1)(Nc1ccc(S(=O)(=O)Nc2cc(C)nc(C)n2)cc1)C(F)(F)F (stereo not given) | > 100 µM (inactive) | > 100 µM (inactive) | > 100 µM (inactive) | 68.7 µM (inactive) | > 100 µM (inactive) | > 100 µM (inactive) | > 100 | > 100 µM (inactive) | > 100 µM (inactive) | > 100 µM (inactive) | > 100 µM (inactive) | > 100 µM (inactive) | > 100 µM (inactive) | > 100 µM (inactive) | > 100 µM (inactive) | > 100 µM (inactive) | > 100 µM (inactive) | –
3 | CC(=O)Nc1nnc(S(=O)(=O)NC(=S)Nc2ccc(Cl)cc2)s1 | > 100 µM (inactive) | > 100 µM (inactive) | > 100 µM (inactive) | > 100 µM (inactive) | > 100 µM (inactive) | > 100 µM (inactive) | > 100 | > 100 µM (inactive) | > 100 µM (inactive) | – | > 100 µM (inactive) | > 100 µM (inactive) | > 100 µM (inactive) | > 100 µM (inactive) | > 100 µM (inactive) | > 100 µM (inactive) | > 100 µM (inactive) | > 100 µM (inactive)
4 | COc1ccc(CNc2nc(NCc3ccc(OC)cc3)nc(NC3CCCCC3)n2)cc1 | 3.01 µM (inactive) | 2.81 µM (inactive) | – | 3.29 µM (inactive) | 1.8 µM (inactive) | 2.48 µM (inactive) | 2.13 | 3.46 µM (inactive) | 0.472 µM (active) | 1.93 µM (inactive) | 2.9 µM (inactive) | 1.07 µM (active) | 5.5 µM (inactive) | 2.21 µM (inactive) | > 100 µM (inactive) | 2.07 µM (inactive) | 10 µM (inactive) | –
5 | O=c1cc(-c2ccc(O)cc2)n(C2CC2)c2ccccc12 | 5.38 µM (inactive) | 4.06 µM (inactive) | – | 7.43 µM (inactive) | 11.9 µM (inactive) | 8.47 µM (inactive) | 4.08 | 1.57 µM (inactive) | 4.83 µM (inactive) | 2.67 µM (inactive) | 3.64 µM (inactive) | 4.42 µM (inactive) | 4.41 µM (inactive) | 7.16 µM (inactive) | 50.9 µM (inactive) | 5.08 µM (inactive) | – | 2.82 µM (inactive)
6 | CNc1cc([N+](=O)[O-])ccc1C(=O)N1CCC[C@H]1CO | > 100 µM (inactive) | > 100 µM (inactive) | > 100 µM (inactive) | 44.3 µM (inactive) | > 100 µM (inactive) | > 100 µM (inactive) | > 100 | > 100 µM (inactive) | > 100 µM (inactive) | > 100 µM (inactive) | > 100 µM (inactive) | – | > 100 µM (inactive) | – | > 100 µM (inactive) | > 100 µM (inactive) | – | –
7 | C=C1C(=O)O[C@@H]2/C=C(\C)CC/C=C(\C)CC[C@@]12O | 1.2 µM (inactive) | 1.37 µM (inactive) | – | 2.42 µM (inactive) | 10.6 µM (inactive) | 8.65 µM (inactive) | 2.82 | 2.99 µM (inactive) | 2.62 µM (inactive) | 13.8 µM (inactive) | 1.97 µM (inactive) | 1.35 µM (inactive) | 5.07 µM (inactive) | 0.149 µM (active) | 1.41 µM (inactive) | 5.43 µM (inactive) | 1.98 µM (inactive) | 0.185 µM (active)
8 | O=C(O)c1cccc(OCCO)c1 | > 100 µM (inactive) | > 100 µM (inactive) | – | > 100 µM (inactive) | > 100 µM (inactive) | > 100 µM (inactive) | > 100 | > 100 µM (inactive) | > 100 µM (inactive) | > 100 µM (inactive) | > 100 µM (inactive) | > 100 µM (inactive) | > 100 µM (inactive) | – | > 100 µM (inactive) | > 100 µM (inactive) | > 100 µM (inactive) | > 100 µM (inactive)
9 | COc1ccc2c(c1)c1c(n2CCN2CCCCC2)-c2cccc(OC)c2CC1 | – | 20.2 µM (inactive) | 18.5 µM (inactive) | 4.9 µM (inactive) | 18.7 µM (inactive) | 15.6 µM (inactive) | 8.99 | 4.58 µM (inactive) | 14.7 µM (inactive) | 10 µM (inactive) | 32 µM (inactive) | 16.4 µM (inactive) | 16.7 µM (inactive) | 4.27 µM (inactive) | 16.4 µM (inactive) | 13.4 µM (inactive) | 29.2 µM (inactive) | –
10 | O=C1OC(C2=CC(=O)c3ccccc3C2=O)C(Cl)=C1Cl (stereo not given) | 27.4 µM (inactive) | 17.9 µM (inactive) | 37.2 µM (inactive) | 24 µM (inactive) | 31.5 µM (inactive) | 11.6 µM (inactive) | 20 | 42 µM (inactive) | 35.6 µM (inactive) | 27.2 µM (inactive) | 39.7 µM (inactive) | 67.9 µM (inactive) | 33.1 µM (inactive) | 20 µM (inactive) | 34.4 µM (inactive) | 56.1 µM (inactive) | – | 25.2 µM (inactive)
11 | Oc1nc2c(c(-c3ccccc3Cl)n1)COC/C2=C\c1ccccc1Cl | > 100 µM (inactive) | > 100 µM (inactive) | 38.9 µM (inactive) | – | > 100 µM (inactive) | > 100 µM (inactive) | > 100 | > 100 µM (inactive) | > 100 µM (inactive) | > 100 µM (inactive) | > 100 µM (inactive) | > 100 µM (inactive) | > 100 µM (inactive) | 49.3 µM (inactive) | 55.5 µM (inactive) | > 100 µM (inactive) | > 100 µM (inactive) | > 100 µM (inactive)
12 | CC(=O)O[C@@H]1CC2[C@@H](CCC3Cc4nc5c(nc4C[C@@]32C)CC2CC[C@@H]3C(CC[C@@]4(C)C3CC[C@@H]4C(C)CCCC(C)C)[C@@]2(C)C5)C2C[C@@H]3OC4(CCC(C)CO4)C(C)[C@@H]3[C@]21C (stereo not given in full) | > 100 µM (inactive) | 53.7 µM (inactive) | 2.74 µM (inactive) | > 100 µM (inactive) | 30.3 µM (inactive) | > 100 µM (inactive) | > 100 | > 100 µM (inactive) | > 100 µM (inactive) | 23.4 µM (inactive) | > 100 µM (inactive) | – | 22.8 µM (inactive) | > 100 µM (inactive) | > 100 µM (inactive) | 65.2 µM (inactive) | > 100 µM (inactive) | 19.9 µM (inactive)
